Reference: ChEMBL document CHEMBL1629642, “In vitro efficacy of ST246 against smallpox and monkeypox” (Antimicrob Agents Chemother, 2009)
The source made the active and inactive calls. The calls are words filed in the database; no cut-off is given here.

Key:
Variola virus [1] = assay: Antiviral activity against Variola virus SUD47-juba infected in african green monkey BSC-40 cells at 0.005 uM assessed as reduction in virus-induced cytopathic effect; type: functional, organism-based
Monkeypox virus [2] = assay: Antiviral activity against Monkeypox virus V1979-I-005 infected in african green monkey BSC-40 cells at 0.05 to 0.5 uM by IHC staining-based plaque reduction assay; type: functional, organism-based
Variola virus [3] = assay: Antiviral activity against Variola virus BRZ66-39 infected in african green monkey BSC-40 cells at 0.005 uM by IHC staining-based comet tail reduction assay; type: functional, organism-based
Monkeypox virus [4] = assay: Antiviral activity against Monkeypox virus V81-I-179 infected in african green monkey BSC-40 cells at 0.05 to 0.5 uM by IHC staining-based comet tail reduction assay; type: functional, organism-based
Monkeypox virus [5] = assay: Antiviral activity against Monkeypox virus V78-I-3945 infected in african green monkey BSC-40 cells at 0.005 uM uM by IHC staining-based plaque reduction assay; type: functional, organism-based
Monkeypox virus [6] = assay: Antiviral activity against Monkeypox virus V77-I-823 infected in african green monkey BSC-40 cells assessed as reduction in virus-induced cytopathic effect at 0.005 uM; type: functional, organism-based
Variola virus [7] = assay: Antiviral activity against Variola virus BSH74-sol infected in african green monkey BSC-40 cells at 0.015 uM by IHC staining-based comet tail reduction assay; type: functional, organism-based
Variola virus [8] = assay: Antiviral activity against Variola virus SLN68-258 infected in african green monkey BSC-40 cells at 0.005 uM assessed as reduction in virus-induced cytopathic effect; type: functional, organism-based
Variola virus [9] = assay: Antiviral activity against Variola virus SUD47-juba infected in african green monkey BSC-40 cells at 0.005 uM by IHC staining-based comet tail reduction assay; type: functional, organism-based
Variola virus [10] = assay: Antiviral activity against Variola virus NEP73-175 infected in african green monkey BSC-40 cells at 0.05 to 0.5 uM by IHC staining-based plaque reduction assay; type: functional, organism-based
Monkeypox virus [11] = assay: Antiviral activity against Monkeypox virus 2003-USA-039 infected in african green monkey BSC-40 cells assessed as reduction in virus-induced cytopathic effect at 0.015 uM; type: functional, organism-based
Variola virus [12] = assay: Antiviral activity against Variola virus SLN68-258 infected in african green monkey BSC-40 cells at 0.05 to 0.5 uM by IHC staining-based plaque reduction assay; type: functional, organism-based
Monkeypox virus [13] = assay: Antiviral activity against Monkeypox virus V1979-I-005 infected in african green monkey BSC-40 cells assessed as reduction in viral plaque formation at 0.015 uM uM by IHC staining-based plaque reduction assay; type: functional
Variola virus [14] = assay: Antiviral activity against Variola virus NEP73-175 infected in african green monkey BSC-40 cells at 0.05 to 0.5 uM by IHC staining-based comet tail reduction assay; type: functional, organism-based
Variola virus [15] = assay: Antiviral activity against Variola virus NEP73-175 infected in african green monkey BSC-40 cells at 0.05 to 5 uM assessed as reduction in virus-induced cytopathic effect; type: functional, organism-based
Monkeypox virus [16] = assay: Antiviral activity against Monkeypox virus V78-I-3945 infected in african green monkey BSC-40 cells at 0.05 to 0.5 uM by IHC staining-based plaque reduction assay; type: functional, organism-based
Monkeypox virus [17] = assay: Antiviral activity against Monkeypox virus V1979-I-005 infected in african green monkey BSC-40 cells at 0.015 uM by IHC staining-based comet tail reduction assay; type: functional, organism-based
Variola virus [18] = assay: Antiviral activity against Variola virus BRZ66-39 infected in african green monkey BSC-40 cells at 0.05 to 0.5 uM by IHC staining-based plaque reduction assay; type: functional, organism-based
Variola virus [19] = assay: Antiviral activity against Variola virus SUD47-juba infected in african green monkey BSC-40 cells at 0.015 uM by IHC staining-based comet tail reduction assay; type: functional, organism-based
Variola virus [20] = assay: microbe, parasite or virus in culture; conditions: BSH74-sol, BSC-40
Variola virus [21] = assay: Antiviral activity against Variola virus SLN68-258 infected in african green monkey BSC-40 cells assessed as reduction in viral plaque formation at 0.015 uM uM by IHC staining-based plaque reduction assay; type: functional
Variola virus [22] = assay: Antiviral activity against Variola virus NEP73-175 infected in african green monkey BSC-40 cells at 0.015 uM by IHC staining-based comet tail reduction assay; type: functional, organism-based
Variola virus [23] = assay: Antiviral activity against Variola virus BSH74-sol infected in african green monkey BSC-40 cells at 0.015 uM assessed as reduction in virus-induced cytopathic effect; type: functional, organism-based
Camelpox virus = assay: Antiviral activity against Camelpox virus infected in african green monkey Vero cells assessed as reduction in virus-induced cytopathic effect; type: functional, organism-based
Variola virus [24] = assay: Antiviral activity against Variola virus SOM77-ali infected in african green monkey BSC-40 cells at 0.05 to 0.5 uM by IHC staining-based comet tail reduction assay; type: functional, organism-based
Variola virus [25] = assay: Antiviral activity against Variola virus SOM77-ali infected in african green monkey BSC-40 cells at 0.005 uM assessed as reduction in virus-induced cytopathic effect; type: functional, organism-based
Monkeypox virus [26] = assay: Antiviral activity against Monkeypox virus V77-I-823 infected in african green monkey BSC-40 cells assessed as reduction in viral plaque formation at 0.015 uM uM by IHC staining-based plaque reduction assay; type: functional
Variola virus [27] = assay: Antiviral activity against Variola virus BRZ66-39 infected in african green monkey BSC-40 cells assessed as reduction in viral plaque formation at 0.015 uM uM by IHC staining-based plaque reduction assay; type: functional
Variola virus [28] = assay: Antiviral activity against Variola virus SUD47-juba infected in african green monkey BSC-40 cells at 0.05 to 0.5 uM by IHC staining-based comet tail reduction assay; type: functional, organism-based
Variola virus [29] = assay: Antiviral activity against Variola virus SUD47-juba infected in african green monkey BSC-40 cells assessed as reduction in viral plaque formation at 0.015 uM uM by IHC staining-based plaque reduction assay; type: functional
Variola virus [30] = assay: Antiviral activity against Variola virus BRZ66-39 infected in african green monkey BSC-40 cells at 0.005 uM uM by IHC staining-based plaque reduction assay; type: functional, organism-based
Variola virus [31] = assay: Antiviral activity against Variola virus infected in african green monkey vero cells assessed as reduction in virus-induced cytopathic effect; type: functional, organism-based
Variola virus [32] = assay: Antiviral activity against Variola virus SOM77-ali infected in african green monkey BSC-40 cells assessed as reduction in viral plaque formation at 0.015 uM uM by IHC staining-based plaque reduction assay; type: functional
Monkeypox virus [33] = assay: Antiviral activity against Monkeypox virus V78-I-3945 infected in african green monkey BSC-40 cells at 0.05 to 0.5 uM by IHC staining-based comet tail reduction assay; type: functional, organism-based
Monkeypox virus [34] = assay: Antiviral activity against Monkeypox virus V77-I-823 infected in african green monkey BSC-40 cells at 0.005 uM uM by IHC staining-based plaque reduction assay; type: functional, organism-based
Variola virus [35] = assay: microbe, parasite or virus in culture; conditions: SOM77-ali, BSC-40
Variola virus [36] = assay: Antiviral activity against Variola virus BSH74-sol infected in african green monkey BSC-40 cells at 0.05 to 5 uM assessed as reduction in virus-induced cytopathic effect; type: functional, organism-based

## O=C(NN1C(=O)[C@@H]2[C@@H]3C=C[C@@H]([C@H]4C[C@@H]34)[C@@H]2C1=O)c1ccc(C(F)(F)F)cc1 [TECOVIRIMAT]
Variola virus [1]
  Activity: inactive
Monkeypox virus [2]
  Activity: Active
Variola virus [3]
  Activity: inactive
Monkeypox virus [4]
  Activity: Active
Monkeypox virus [5]
  Activity: inactive
Monkeypox virus [6]
  Activity: inactive
Variola virus [7]
  Activity: Active
Variola virus [8]
  Activity: inactive
Variola virus [9]
  Activity: inactive
Variola virus [10]
  Activity: Active
Monkeypox virus [11]
  Activity: Active
Variola virus [12]
  Activity: Active
Monkeypox virus [13]
  inhibition (INH): 50%
Variola virus [14]
  Activity: Active
Variola virus [15]
  Activity: Active
Monkeypox virus [16]
  Activity: Active
Monkeypox virus [17]
  Activity: Active
Variola virus [18]
  Activity: Active
Variola virus [19]
  Activity: Active
Variola virus [20]
  EC50: 28 nM
Variola virus [21]
  inhibition (INH): 50%
Variola virus [22]
  Activity: Active
Variola virus [23]
  Activity: Active
Camelpox virus
  Activity: Active
Variola virus [24]
  Activity: Active
Variola virus [25]
  Activity: inactive
Monkeypox virus [26]
  inhibition (INH): 50%
Variola virus [27]
  inhibition (INH): 50%
Variola virus [28]
  Activity: Active
Variola virus [29]
  inhibition (INH): 50%
Variola virus [30]
  Activity: inactive
Variola virus [31]
  Activity: Active
Variola virus [32]
  inhibition (INH): 50%
Monkeypox virus [33]
  Activity: Active
Monkeypox virus [34]
  Activity: inactive
Variola virus [35]
  EC50: 28 nM
Variola virus [36]
  Activity: Active
